In paper PMC4917279 (Journal of Medicinal Chemistry, 2016):
“Also recorded” adds a separate entry of the source.

Assays:
FGR = biological target: T1, FGR (Homo sapiens, UniProt P09769); assay: KINOMEscan; type: binding; conditions: read-out: %Ctrl @ 1000 nM
T1 construct: purchased DiscoveRx KINOMEscan

TYRO3 = biological target: T2, TYRO3 (Homo sapiens, UniProt Q06418); assay: KINOMEscan; type: binding; conditions: read-out: %Ctrl @ 1000 nM
T2 construct: purchased DiscoveRx KINOMEscan

CHEK1 = biological target: T3, CHEK1 (Homo sapiens, UniProt O14757); assay: KINOMEscan; type: binding; conditions: read-out: %Ctrl @ 1000 nM
T3 construct: purchased DiscoveRx KINOMEscan

SRPK2 = biological target: T4, SRPK2 (Homo sapiens, UniProt P78362); assay: KINOMEscan; type: binding; conditions: read-out: %Ctrl @ 1000 nM
T4 construct: purchased DiscoveRx KINOMEscan

MST1R = biological target: T5, MST1R (Homo sapiens, UniProt Q04912); assay: KINOMEscan; type: binding; conditions: read-out: %Ctrl @ 1000 nM
T5 construct: purchased DiscoveRx KINOMEscan

BRK = biological target: T6, BRK (Homo sapiens, UniProt Q13882); assay: KINOMEscan; type: binding; conditions: read-out: %Ctrl @ 1000 nM
T6 construct: purchased DiscoveRx KINOMEscan

WEE2 = biological target: T7, WEE2 (Homo sapiens, UniProt P0C1S8); assay: KINOMEscan; type: binding; conditions: read-out: %Ctrl @ 1000 nM
T7 construct: purchased DiscoveRx KINOMEscan

AURKA = biological target: T8, AURKA (Homo sapiens, UniProt O14965); assay: KINOMEscan; type: binding; conditions: read-out: %Ctrl @ 1000 nM
T8 construct: purchased DiscoveRx KINOMEscan

MARK1 = biological target: T9, MARK1 (Homo sapiens, UniProt Q9P0L2); assay: KINOMEscan; type: binding; conditions: read-out: %Ctrl @ 1000 nM
T9 construct: purchased DiscoveRx KINOMEscan

TAOK1 = biological target: T10, TAOK1 (Homo sapiens, UniProt Q7L7X3); assay: KINOMEscan; type: binding; conditions: read-out: %Ctrl @ 1000 nM
T10 construct: purchased DiscoveRx KINOMEscan

[1] = Exposure and tolerability after oral administration to mice; type: in vivo; conditions: 10–100 mg/kg po qd
[2] = system: KYSE-150, U2OS, and A2780 cell lines; assay: Caspase 3/7 activation assay; type: cell-based
Experimental: Effects on apoptosis induction were measured with the Caspase-Glo 3/7 Assay System (Promega).

PIK4CB = biological target: T11, PIK4CB (Homo sapiens, UniProt Q9UBF8); assay: KINOMEscan; type: binding; conditions: read-out: %Ctrl @ 1000 nM
T11 construct: purchased DiscoveRx KINOMEscan

LRRK2(G2019S) = biological target: T12, LRRK2(G2019S) (Homo sapiens, UniProt Q5S007, G2019S); assay: KINOMEscan; type: binding; conditions: read-out: %Ctrl @ 1000 nM
T12 construct: purchased DiscoveRx KINOMEscan

EPHA4 = biological target: T13, EPHA4 (Homo sapiens, UniProt P54764); assay: KINOMEscan; type: binding; conditions: read-out: %Ctrl @ 1000 nM
T13 construct: purchased DiscoveRx KINOMEscan

p38-delta = biological target: T14, p38-delta (Homo sapiens, UniProt O15264); assay: KINOMEscan; type: binding; conditions: read-out: %Ctrl @ 1000 nM
T14 construct: purchased DiscoveRx KINOMEscan

GSK3B = biological target: T15, GSK3B (Homo sapiens, UniProt P49841); assay: KINOMEscan; type: binding; conditions: read-out: %Ctrl @ 1000 nM
T15 construct: purchased DiscoveRx KINOMEscan

CASK = biological target: T16, CASK (Homo sapiens, UniProt O14936); assay: KINOMEscan; type: binding; conditions: read-out: %Ctrl @ 1000 nM
T16 construct: purchased DiscoveRx KINOMEscan

NIK = biological target: T17, NIK (Homo sapiens, UniProt Q99558); assay: KINOMEscan; type: binding; conditions: read-out: %Ctrl @ 1000 nM
T17 construct: purchased DiscoveRx KINOMEscan

GRK7 = biological target: T18, GRK7 (Homo sapiens, UniProt Q8WTQ7); assay: KINOMEscan; type: binding; conditions: read-out: %Ctrl @ 1000 nM
T18 construct: purchased DiscoveRx KINOMEscan

EPHA7 = biological target: T19, EPHA7 (Homo sapiens, UniProt Q15375); assay: KINOMEscan; type: binding; conditions: read-out: %Ctrl @ 1000 nM
T19 construct: purchased DiscoveRx KINOMEscan

EPHB2 = biological target: T20, EPHB2 (Homo sapiens, UniProt P29323); assay: KINOMEscan; type: binding; conditions: read-out: %Ctrl @ 1000 nM
T20 construct: purchased DiscoveRx KINOMEscan

PAK2 = biological target: T21, PAK2 (Homo sapiens, UniProt Q13177); assay: KINOMEscan; type: binding; conditions: read-out: %Ctrl @ 1000 nM
T21 construct: purchased DiscoveRx KINOMEscan

HPK1 = biological target: T22, HPK1 (Homo sapiens, UniProt Q92918); assay: KINOMEscan; type: binding; conditions: read-out: %Ctrl @ 1000 nM
T22 construct: purchased DiscoveRx KINOMEscan

SYK = biological target: T23, SYK (Homo sapiens, UniProt P43405); assay: KINOMEscan; type: binding; conditions: read-out: %Ctrl @ 1000 nM
T23 construct: purchased DiscoveRx KINOMEscan

PIK3CA = biological target: T24, PIK3CA (Homo sapiens, UniProt P42336); assay: KINOMEscan; type: binding; conditions: read-out: %Ctrl @ 1000 nM
T24 construct: purchased DiscoveRx KINOMEscan

BLK = biological target: T25, BLK (Homo sapiens, UniProt P51451); assay: KINOMEscan; type: binding; conditions: read-out: %Ctrl @ 1000 nM
T25 construct: purchased DiscoveRx KINOMEscan

EPHA5 = biological target: T26, EPHA5 (Homo sapiens, UniProt P54756); assay: KINOMEscan; type: binding; conditions: read-out: %Ctrl @ 1000 nM
T26 construct: purchased DiscoveRx KINOMEscan

CDK4-cyclinD1 = biological target: T27, CDK4-cyclinD1 (Homo sapiens, UniProt P11802); assay: KINOMEscan; type: binding; conditions: read-out: %Ctrl @ 1000 nM
T27 construct: purchased DiscoveRx KINOMEscan

MAP3K3 = biological target: T28, MAP3K3 (Homo sapiens, UniProt Q99759); assay: KINOMEscan; type: binding; conditions: read-out: %Ctrl @ 1000 nM
T28 construct: purchased DiscoveRx KINOMEscan

EPHA8 = biological target: T29, EPHA8 (Homo sapiens, UniProt P29322); assay: KINOMEscan; type: binding; conditions: read-out: %Ctrl @ 1000 nM
T29 construct: purchased DiscoveRx KINOMEscan

EPHB1 = biological target: T30, EPHB1 (Homo sapiens, UniProt P54762); assay: KINOMEscan; type: binding; conditions: read-out: %Ctrl @ 1000 nM
T30 construct: purchased DiscoveRx KINOMEscan

CDK5 = biological target: T31, CDK5 (Homo sapiens, UniProt Q00535); assay: KINOMEscan; type: binding; conditions: read-out: %Ctrl @ 1000 nM
T31 construct: purchased DiscoveRx KINOMEscan

PIK3CA(E545K) = biological target: T32, PIK3CA(E545K) (Homo sapiens, UniProt P42336, E545K); assay: KINOMEscan; type: binding; conditions: read-out: %Ctrl @ 1000 nM
T32 construct: purchased DiscoveRx KINOMEscan

CDK9 = biological target: T33, CDK9 (Homo sapiens, UniProt P50750); assay: KINOMEscan; type: binding; conditions: read-out: %Ctrl @ 1000 nM
T33 construct: purchased DiscoveRx KINOMEscan

LIMK2 = biological target: T34, LIMK2 (Homo sapiens, UniProt P53671); assay: KINOMEscan; type: binding; conditions: read-out: %Ctrl @ 1000 nM
T34 construct: purchased DiscoveRx KINOMEscan

DCAMKL1 = biological target: T35, DCAMKL1 (Homo sapiens, UniProt O15075); assay: KINOMEscan; type: binding; conditions: read-out: %Ctrl @ 1000 nM
T35 construct: purchased DiscoveRx KINOMEscan

[3] = biological target: T36, ABL1(F317I)-nonphosphorylated (Homo sapiens, UniProt P00519, F317I); assay: KINOMEscan; type: binding; conditions: read-out: %Ctrl @ 1000 nM
T36 construct: purchased DiscoveRx (KINOMEscan service)

HCK = biological target: T37, HCK (Homo sapiens, UniProt P08631); assay: KINOMEscan; type: binding; conditions: read-out: %Ctrl @ 1000 nM
T37 construct: purchased DiscoveRx KINOMEscan

EPHA2 = biological target: T38, EPHA2 (Homo sapiens, UniProt P29317); assay: KINOMEscan; type: binding; conditions: read-out: %Ctrl @ 1000 nM
T38 construct: purchased DiscoveRx KINOMEscan

WNK3 = biological target: T39, WNK3 (Homo sapiens, UniProt Q9BYP7); assay: KINOMEscan; type: binding; conditions: read-out: %Ctrl @ 1000 nM
T39 construct: purchased DiscoveRx KINOMEscan

PRKCE = biological target: T40, PRKCE (Homo sapiens, UniProt Q02156); assay: KINOMEscan; type: binding; conditions: read-out: %Ctrl @ 1000 nM
T40 construct: purchased DiscoveRx KINOMEscan

CLK1 = biological target: T41, CLK1 (Homo sapiens, UniProt P49759); assay: KINOMEscan; type: binding; conditions: read-out: %Ctrl @ 1000 nM
T41 construct: purchased DiscoveRx KINOMEscan

T19 sequence (Q15375 28-998): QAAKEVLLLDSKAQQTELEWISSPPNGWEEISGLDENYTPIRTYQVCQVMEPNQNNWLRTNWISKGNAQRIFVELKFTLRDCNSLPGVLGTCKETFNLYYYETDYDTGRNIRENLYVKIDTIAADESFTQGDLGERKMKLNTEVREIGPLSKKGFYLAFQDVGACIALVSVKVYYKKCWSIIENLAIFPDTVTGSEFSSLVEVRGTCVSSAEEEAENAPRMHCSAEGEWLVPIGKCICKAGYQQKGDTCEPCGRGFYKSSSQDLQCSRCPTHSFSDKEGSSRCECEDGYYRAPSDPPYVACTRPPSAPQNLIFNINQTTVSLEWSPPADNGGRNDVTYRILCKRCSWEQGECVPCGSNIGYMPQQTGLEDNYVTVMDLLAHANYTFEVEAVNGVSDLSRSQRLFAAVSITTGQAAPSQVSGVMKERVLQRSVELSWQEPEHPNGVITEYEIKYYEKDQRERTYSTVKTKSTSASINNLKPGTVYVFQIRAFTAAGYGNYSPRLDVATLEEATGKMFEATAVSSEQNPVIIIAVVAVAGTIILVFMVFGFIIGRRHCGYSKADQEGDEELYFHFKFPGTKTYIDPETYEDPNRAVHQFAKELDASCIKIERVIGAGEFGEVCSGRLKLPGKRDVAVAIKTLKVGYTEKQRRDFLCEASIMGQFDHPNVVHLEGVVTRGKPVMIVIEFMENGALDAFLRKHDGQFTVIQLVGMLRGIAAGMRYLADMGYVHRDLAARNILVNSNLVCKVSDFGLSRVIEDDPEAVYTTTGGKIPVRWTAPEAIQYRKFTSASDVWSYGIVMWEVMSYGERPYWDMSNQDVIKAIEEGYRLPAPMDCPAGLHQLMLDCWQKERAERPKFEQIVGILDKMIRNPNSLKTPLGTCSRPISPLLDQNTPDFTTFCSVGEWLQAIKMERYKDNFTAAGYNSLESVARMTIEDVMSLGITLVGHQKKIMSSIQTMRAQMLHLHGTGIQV
T17 sequence (Q99558 whole entry): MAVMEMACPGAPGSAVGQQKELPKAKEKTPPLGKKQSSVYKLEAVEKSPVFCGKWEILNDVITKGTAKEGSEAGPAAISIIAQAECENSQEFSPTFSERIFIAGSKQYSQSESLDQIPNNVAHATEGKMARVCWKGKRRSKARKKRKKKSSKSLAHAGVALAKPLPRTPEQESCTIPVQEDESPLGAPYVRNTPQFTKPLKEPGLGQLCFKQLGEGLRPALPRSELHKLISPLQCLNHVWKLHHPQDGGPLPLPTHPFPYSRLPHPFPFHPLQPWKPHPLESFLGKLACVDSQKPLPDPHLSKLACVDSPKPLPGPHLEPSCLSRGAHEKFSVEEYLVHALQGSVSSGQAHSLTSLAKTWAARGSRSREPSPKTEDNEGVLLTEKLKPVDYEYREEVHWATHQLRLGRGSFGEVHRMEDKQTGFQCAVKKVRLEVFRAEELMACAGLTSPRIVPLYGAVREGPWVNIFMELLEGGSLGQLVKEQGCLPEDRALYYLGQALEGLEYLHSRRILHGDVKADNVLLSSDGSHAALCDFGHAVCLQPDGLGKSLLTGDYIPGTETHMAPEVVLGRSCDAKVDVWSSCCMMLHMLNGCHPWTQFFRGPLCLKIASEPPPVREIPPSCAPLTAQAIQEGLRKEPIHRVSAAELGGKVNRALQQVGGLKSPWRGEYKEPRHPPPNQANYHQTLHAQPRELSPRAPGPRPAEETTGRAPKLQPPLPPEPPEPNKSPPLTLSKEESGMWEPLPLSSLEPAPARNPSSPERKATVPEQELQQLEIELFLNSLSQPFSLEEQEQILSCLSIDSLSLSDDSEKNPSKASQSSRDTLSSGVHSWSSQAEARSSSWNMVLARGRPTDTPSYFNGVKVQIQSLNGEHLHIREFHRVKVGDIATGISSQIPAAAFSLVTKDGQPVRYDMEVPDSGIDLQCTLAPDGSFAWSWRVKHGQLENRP
T21 sequence (Q13177 whole entry): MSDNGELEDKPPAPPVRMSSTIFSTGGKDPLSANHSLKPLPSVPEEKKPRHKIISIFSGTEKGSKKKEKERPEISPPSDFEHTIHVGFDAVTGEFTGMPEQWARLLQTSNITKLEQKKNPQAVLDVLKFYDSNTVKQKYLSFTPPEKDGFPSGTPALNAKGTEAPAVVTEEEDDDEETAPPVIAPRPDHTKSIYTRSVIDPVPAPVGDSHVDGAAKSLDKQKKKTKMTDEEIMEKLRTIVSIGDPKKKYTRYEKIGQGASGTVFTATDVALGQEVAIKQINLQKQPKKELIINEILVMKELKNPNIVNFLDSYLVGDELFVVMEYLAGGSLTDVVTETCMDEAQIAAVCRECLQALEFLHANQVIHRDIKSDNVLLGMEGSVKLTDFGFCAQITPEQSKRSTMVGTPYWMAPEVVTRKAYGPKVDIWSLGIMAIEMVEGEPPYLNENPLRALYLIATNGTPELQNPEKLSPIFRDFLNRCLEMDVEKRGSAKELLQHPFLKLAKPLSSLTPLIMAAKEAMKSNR
T31 sequence (Q00535 whole entry): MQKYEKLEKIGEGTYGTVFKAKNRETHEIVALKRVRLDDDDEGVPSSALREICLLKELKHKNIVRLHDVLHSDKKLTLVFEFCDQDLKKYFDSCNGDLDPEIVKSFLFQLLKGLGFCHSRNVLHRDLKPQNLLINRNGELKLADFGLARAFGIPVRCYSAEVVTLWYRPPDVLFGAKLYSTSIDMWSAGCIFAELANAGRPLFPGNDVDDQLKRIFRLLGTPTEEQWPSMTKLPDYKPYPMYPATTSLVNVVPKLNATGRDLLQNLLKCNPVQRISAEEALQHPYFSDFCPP
T18 sequence (Q8WTQ7 whole entry): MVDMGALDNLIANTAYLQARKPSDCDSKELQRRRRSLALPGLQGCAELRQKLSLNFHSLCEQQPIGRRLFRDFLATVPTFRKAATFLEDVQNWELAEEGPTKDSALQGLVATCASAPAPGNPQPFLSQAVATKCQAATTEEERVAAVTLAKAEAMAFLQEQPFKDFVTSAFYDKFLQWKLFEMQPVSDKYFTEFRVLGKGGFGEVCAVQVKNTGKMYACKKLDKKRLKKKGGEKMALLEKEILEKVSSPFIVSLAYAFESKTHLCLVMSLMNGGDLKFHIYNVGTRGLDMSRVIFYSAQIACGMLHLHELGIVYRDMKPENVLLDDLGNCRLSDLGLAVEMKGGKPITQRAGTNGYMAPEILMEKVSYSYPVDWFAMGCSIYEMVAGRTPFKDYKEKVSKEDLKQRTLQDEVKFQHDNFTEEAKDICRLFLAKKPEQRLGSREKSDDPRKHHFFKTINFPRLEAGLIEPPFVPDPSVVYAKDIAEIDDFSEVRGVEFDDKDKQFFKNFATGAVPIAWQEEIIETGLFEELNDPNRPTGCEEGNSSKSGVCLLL
T35 sequence (O15075 whole entry): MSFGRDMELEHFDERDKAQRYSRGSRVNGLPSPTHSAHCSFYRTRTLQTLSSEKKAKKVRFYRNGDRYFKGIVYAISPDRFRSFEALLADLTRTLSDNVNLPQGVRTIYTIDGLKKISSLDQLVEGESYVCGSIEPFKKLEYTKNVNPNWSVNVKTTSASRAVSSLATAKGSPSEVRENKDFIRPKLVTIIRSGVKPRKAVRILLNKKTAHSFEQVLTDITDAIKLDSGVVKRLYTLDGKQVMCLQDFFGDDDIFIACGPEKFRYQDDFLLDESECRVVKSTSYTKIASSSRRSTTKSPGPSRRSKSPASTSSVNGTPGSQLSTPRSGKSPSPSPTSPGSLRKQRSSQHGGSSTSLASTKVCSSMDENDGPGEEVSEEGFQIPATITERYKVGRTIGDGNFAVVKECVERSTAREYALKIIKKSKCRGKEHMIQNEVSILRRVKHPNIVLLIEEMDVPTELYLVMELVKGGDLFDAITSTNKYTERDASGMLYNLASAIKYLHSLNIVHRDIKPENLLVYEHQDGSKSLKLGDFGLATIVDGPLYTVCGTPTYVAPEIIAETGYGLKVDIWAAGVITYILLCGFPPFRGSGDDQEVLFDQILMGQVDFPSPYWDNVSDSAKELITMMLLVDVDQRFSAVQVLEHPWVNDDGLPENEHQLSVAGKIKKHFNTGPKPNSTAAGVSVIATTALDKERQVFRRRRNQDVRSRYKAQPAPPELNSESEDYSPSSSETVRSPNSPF
T4 sequence (P78362 whole entry): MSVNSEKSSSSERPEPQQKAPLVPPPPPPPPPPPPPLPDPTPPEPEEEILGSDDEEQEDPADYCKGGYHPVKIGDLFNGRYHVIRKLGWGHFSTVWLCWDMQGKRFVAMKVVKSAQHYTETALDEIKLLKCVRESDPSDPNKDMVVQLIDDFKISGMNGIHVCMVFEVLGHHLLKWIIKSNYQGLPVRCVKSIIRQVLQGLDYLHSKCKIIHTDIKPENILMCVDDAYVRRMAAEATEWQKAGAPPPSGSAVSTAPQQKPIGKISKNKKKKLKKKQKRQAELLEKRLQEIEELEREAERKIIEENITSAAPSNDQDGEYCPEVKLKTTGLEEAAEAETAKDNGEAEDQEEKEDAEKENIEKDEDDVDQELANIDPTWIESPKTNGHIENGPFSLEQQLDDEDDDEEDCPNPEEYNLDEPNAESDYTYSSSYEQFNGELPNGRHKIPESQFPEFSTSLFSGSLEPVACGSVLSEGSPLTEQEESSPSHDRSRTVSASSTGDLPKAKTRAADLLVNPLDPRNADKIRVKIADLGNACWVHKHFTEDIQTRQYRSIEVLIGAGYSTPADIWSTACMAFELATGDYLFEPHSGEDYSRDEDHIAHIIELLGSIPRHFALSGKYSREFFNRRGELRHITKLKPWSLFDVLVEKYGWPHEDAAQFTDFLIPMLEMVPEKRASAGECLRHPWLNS

Compound: CCN(C(=O)CO)[C@H]1CN(/C(=N\C#N)Nc2cccc(OC(F)F)c2)N=C1c1ccc(Cl)c(Cl)c1 [(S)-4]
- remaining binding at 1 µM (FGR): 100%
- remaining binding at 1 µM (TYRO3): 100%
- remaining binding at 1 µM (CHEK1): 98%
- remaining binding at 1 µM (SRPK2): 95%
- remaining binding at 1 µM (MST1R): 81%
- remaining binding at 1 µM (BRK): 73%
- remaining binding at 1 µM (WEE2): 100%
- remaining binding at 1 µM (AURKA): 96%
- remaining binding at 1 µM (MARK1): 71%
- remaining binding at 1 µM (TAOK1): 89%
- Tolerability [1]: well tolerated
- Caspase 3/7 activation in combination with doxorubicin ([2]; 2 days pretreatment, then doxorubicin 24 h, KYSE-150, U2OS, A2780): significantly improved; also recorded: significantly improving
- Apoptosis induction alone ([2]; without doxorubicin): without inducing apoptosis alone
- remaining binding at 1 µM (PIK4CB): 100%
- remaining binding at 1 µM (LRRK2(G2019S)): 98%
- remaining binding at 1 µM (EPHA4): 90%
- remaining binding at 1 µM (p38-delta): 72%
- remaining binding at 1 µM (GSK3B): 88%
- remaining binding at 1 µM (CASK): 61%
- remaining binding at 1 µM (NIK): 100%
- remaining binding at 1 µM (GRK7): 100%
- remaining binding at 1 µM (EPHA7): 91%
- remaining binding at 1 µM (EPHB2): 74%
- remaining binding at 1 µM (PAK2): 89%
- remaining binding at 1 µM (HPK1): 88%
- remaining binding at 1 µM (SYK): 59%
- remaining binding at 1 µM (PIK3CA): 97%
- remaining binding at 1 µM (BLK): 88%
- remaining binding at 1 µM (EPHA5): 100%
- remaining binding at 1 µM (CDK4-cyclinD1): 93%
- remaining binding at 1 µM (MAP3K3): 73%
- remaining binding at 1 µM (EPHA8): 94%
- remaining binding at 1 µM (EPHB1): 94%
- remaining binding at 1 µM (CDK5): 82%
- remaining binding at 1 µM (PIK3CA(E545K)): 71%
- remaining binding at 1 µM (CDK9): 74%
- remaining binding at 1 µM (LIMK2): 62%
- remaining binding at 1 µM (DCAMKL1): 67%
- remaining binding at 1 µM [3]: 100%
- remaining binding at 1 µM (HCK): 68%
- remaining binding at 1 µM (EPHA2): 84%
- remaining binding at 1 µM (WNK3): 93%
- remaining binding at 1 µM (PRKCE): 92%
- remaining binding at 1 µM (CLK1): 78%
